pEC50, pIC50: −log10 of the molar value. Read-outs that look alike come from different tables or passages of the source.
Columns and labels:
[1] = biological target: T1, HCV NS5B RdRp genotype 1b (Hepatitis C virus genotype 1b, UniProt Q9WMX2); experiment: HCV NS5B RdRp enzyme assay (standard / modified); assay type: biochemical
T1 construct: The protein was expressed with an 18 amino acid C-terminal truncation to enhance the solubility; made in house; host or cells: E. coli BL21(DE3), pET21a vector
T1 sequence (Q9WMX2 2420-2992): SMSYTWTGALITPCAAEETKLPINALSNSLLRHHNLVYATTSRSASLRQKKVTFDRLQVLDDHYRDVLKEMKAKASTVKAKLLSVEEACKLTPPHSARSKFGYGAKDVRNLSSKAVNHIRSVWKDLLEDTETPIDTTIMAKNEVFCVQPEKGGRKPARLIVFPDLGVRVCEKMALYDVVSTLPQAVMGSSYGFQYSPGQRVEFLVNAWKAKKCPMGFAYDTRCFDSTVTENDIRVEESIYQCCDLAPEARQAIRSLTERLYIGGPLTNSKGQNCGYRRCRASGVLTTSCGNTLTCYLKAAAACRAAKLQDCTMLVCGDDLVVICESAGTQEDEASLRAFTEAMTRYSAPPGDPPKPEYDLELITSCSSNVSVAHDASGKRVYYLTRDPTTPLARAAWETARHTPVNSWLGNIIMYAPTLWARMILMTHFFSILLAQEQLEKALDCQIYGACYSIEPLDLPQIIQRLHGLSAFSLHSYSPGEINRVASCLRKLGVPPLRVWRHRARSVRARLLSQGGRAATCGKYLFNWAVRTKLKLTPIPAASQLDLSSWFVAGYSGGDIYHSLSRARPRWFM
Method: HCV NS5B RdRp Cloning, Expression, and Purification.
The cDNA encoding the NS5B protein of HCV, genotype 1b, was cloned into the pET21a expression vector. The protein was expressed with an 18 amino acid C-terminal truncation to enhance the solubility. The E. coli competent cell line BL21(DE3) was used for expression of the protein. Cultures were grown at 37° C. for ˜4 hours until the cultures reached an optical density of 2.0 at 600 nm. The cultures were cooled to 20° C. and induced with 1 mM IPTG. Fresh ampicillin was added to a final concentration of 50 μg/ml and the cells were grown overnight at 20° C.
The lysis buffer consisted of 20 mM Tris-HCl, pH 7.4, 500 mM NaCl, 0.5% triton X-100, 1 mM DTT, 1 mM EDTA, 20% glycerol, 0.5 mg/ml lysozyme, 10 mM MgCl2, 15 ug/ml deoxyribonuclease I, and Complete TM protease inhibitor tablets (Roche). After addition of the lysis buffer, frozen cell pellets were resuspended using a tissue homogenizer. To reduce the viscosity of the sample, aliquots of the lysate were sonicated on ice using a microtip attached to a Branson sonicator. The sonicated lysate was centrifuged at 100,000×g for 1 hr at 4° C. and filtered through a 0.2 μm filter unit (Corning).
The protein was purified using two sequential chromatography steps: Heparin sepharose CL-6B and polyU sepharose 4B (Pharmacia). The chromatography buffers were identical to the lysis buffer but contained no lysozyme, deoxyribonuclease I, MgCl2 or protease inhibitor and the NaCl concentration of the buffer was adjusted according to the requirements for charging the protein onto the column. Each column was eluted with a NaCl gradient which varied in length from 5-50 column volumes depending on the column type. […] The enzyme was aliquoted and stored at −80° C.
Standard HCV NS5B RdRp Enzyme Assay.
HCV RdRp genotype 1b assays were run in a final volume of 60 μl in 96 well plates (Corning 3600). The assay buffer is composed of 20 mM Hepes, pH 7.5, 2.5 mM KCl, 2.5 mM MgCl2, 1 mM DTT, 1.6 U RNAse inhibitor (Promega N2515), 0.01 mg/ml BSA (Sigma B6917), and 2% glycerol. All compounds were serially diluted (3-fold) in DMSO and diluted further in water such that the final concentration of DMSO in the assay was 2%. HCV RdRp genotype 1b enzyme was used at a final concentration of 28 nM. A polyA template was used at 6 nM, and a biotinylated oligo-dT12 primer was used at 180 nM final concentration. Template was obtained commercially (Amersham 27-4110). Biotinylated primer was prepared by Sigma Genosys. 3H-UTP was used at 0.6 μCi (0.29 μM total UTP). Reactions were initiated by the addition of enzyme, incubated at 30° C. for 60 min, and stopped by adding 25 μl of 50 mM EDTA containing SPA beads (4 μg/μl, Amersham RPNQ 0007). Plates were read on a Packard Top Count NXT after >1 hr incubation at room temperature.
Modified HCV NS5B RdRp Enzyme Assay.
A modified enzyme assay was performed essentially as described for the standard enzyme assay except for the following: The biotinylated oligo dT12 primer was precaptured on streptavidin-coated SPA beads by mixing primer and beads in assay buffer and incubating at room temperature for one hour. Unbound primer was removed after centrifugation. The primer-bound beads were resuspended in 20 mM Hepes buffer, pH 7.5 and used in the assay at final concentrations of 20 nM primer and 0.67 μg/μl beads. Order of addition in the assay: enzyme (1.75 nM) was added to diluted compound followed by the addition of a mixture of template (0.36 nM), 3H-UTP (0.6 μCi, 0.29 μM), and primer-bound beads, to initiate the reaction; concentrations given are final. Reactions were allowed to proceed for 4 hours at 30° C.
IC50 values for compounds were determined using seven different [I].

HCV replicon cells = experiment: HCV replicon FRET / luciferase assay; assay type: cell-based, Hepatitis C virus
Method: The HCV FRET screening assay was performed in 96-well cell culture plates. The FRET peptide (Anaspec, Inc.) (Taliani et al., Anal. Biochem. 1996, 240, 60-67) contains a fluorescence donor, EDANS, near one end of the peptide and an acceptor, DABCYL, near the other end. The fluorescence of the peptide is quenched by […] resonance energy transfer (RET) between the donor and the acceptor, but as the NS3 protease cleaves the peptide the products are released from RET quenching and the fluorescence of the donor becomes apparent. The assay reagent was made as follows: 5× cell Luciferase cell culture lysis reagent from Promega (#E153A) diluted to 1× with dH2O, NaCl added to 150 mM final, the FRET peptide diluted to 20 μM final from a 2 mM stock.
To prepare plates, HCV replicon cells, with or without a Renilla luciferase reporter gene, were trypsinized and plated in a 96-well plate with titrated test compounds added in columns 3 through 12; columns 1 and 2 contained a control compound (HCV control inhibitor), and the bottom row contained cells with DMSO only. The plates were then placed in a CO2 incubator at 37° C.
Subsequent to addition of the test compounds described above (FRET Assay Preparation), at various times the plate was removed and Alamar blue solution (Trek Diagnostics, #00-100) was added to measure cellular toxicity. After reading in a Cytoflour 4000 instrument (PE Biosystems), plates were rinsed with PBS and then used for FRET assay by the addition of 30 ul of the FRET peptide assay reagent described above (FRET Assay Preparation) per well. The plate was then placed into the Cytoflour 4000 instrument which had been set to 340 excite/490 emission, automatic mode for up to 20 cycles and the plate read in a kinetic mode. Typically, the signal to noise using an endpoint analysis after the reads was at least three-fold. Alternatively, after Alamar blue reading, plates were rinsed with PBS, then used for luciferase assay using the Promega Dual-Glo Luciferase Assay System or the Promega EnduRen Live Cell Substrate assay.
Compound analysis was performed by quantification of the relative HCV replicon inhibition and the relative cytotoxicity values. To calculate cytoxicity values, the average Alamar Blue fluorescence signals from the control wells were set as 100% non-toxic. The individual signals in each of the compound test wells were then divided by the average control signal and multiplied by 100% to determine […]. To calculate the HCV replicon inhibition values, an average background value was obtained from the two wells containing the highest amount of HCV control inhibitor at the end of the assay period. These numbers were similar to those obtained from naïve Huh-7 cells. The background numbers were then subtracted from the average signal obtained from the control wells and this number was used as 100% activity. The individual signals in each of the compound test wells were then divided by the averaged control values after background subtraction and multiplied by 100% to determine percent activity. […] The two numbers generated for the compound plate, percent cytoxicity and percent activity, were used to determine compounds of interest for further analysis.

[2] = HCV NS5B RdRp genotype 1b enzyme
[3] = HCV replicon cells, FRET or luciferase activity

Row | Compound | pIC50 [1] | pEC50 (HCV replicon cells; Hepatitis C virus) | pIC50 [1, 2] | pEC50 (HCV replicon cells; [3]) | other results
1 | COc1ccc2c(c1)C1CC1(C(=O)N1C3CCC1CN(Cc1ccccc1)C3)Cn1c-2c(C2CCCCC2)c2ccc(C(=O)NS(=O)(=O)N(C)C)cc21 (stereo not shown) [drawing 33] | 6.30 to 9.00 | 6.30 to 9.00 |  |  | 
2 | COc1ccc2c(c1)C1CC1(C(=O)N1C3CCC1CNC3)Cn1c-2c(C2CCCCC2)c2ccc(C(=O)NS(=O)(=O)N(C)C)cc21 (stereo not shown) [drawing 34] | 6.30 to 9.00 | 6.30 to 9.00 |  |  | 
3 | COc1ccc2c(c1)C1CC1(C(=O)N1C3CCC1CN(C(C)=O)C3)Cn1c-2c(C2CCCCC2)c2ccc(C(=O)NS(=O)(=O)N(C)C)cc21 (stereo not shown) [drawing 35] | 6.30 to 9.00 | 6.30 to 9.00 |  |  | 
4 | CCN1CC2CCC(C1)N2C(=O)C12CC1c1cc(OC)ccc1-c1c(C3CCCCC3)c3ccc(C(=O)NS(=O)(=O)N(C)C)cc3n1C2 (stereo not shown) [drawing 36] | 6.30 to 9.00 | 6.30 to 9.00 |  |  | 
5 | COc1ccc2c(c1)C1CC1(C(=O)N1C3CCC1CN(C(C)C)C3)Cn1c-2c(C2CCCCC2)c2ccc(C(=O)NS(=O)(=O)N(C)C)cc21 (stereo not shown) [drawing 37] | 6.30 to 9.00 | 6.30 to 9.00 |  |  | 
6 | COc1ccc2c(c1)C1CC1(C(=O)N1C3CCC1CN(C)C3)Cn1c-2c(C2CCCCC2)c2ccc(C(=O)NS(N)(=O)=O)cc21 (stereo not shown) [drawing 38] | 6.30 to 9.00 | 6.30 to 9.00 |  |  | 
7 | COc1ccc2c(c1)C1CC1(C(=O)NC1CC3CCC(C1)N3C)Cn1c-2c(C2CCCCC2)c2ccc(C(=O)NS(=O)(=O)N(C)C)cc21 (stereo not shown) [drawing 39] | 6.30 to 9.00 | 6.30 to 9.00 |  |  | 
8 | COc1ccc2c(c1)C1CC1(C(=O)N1C3CCC1CN(CC1CC1)C3)Cn1c-2c(C2CCCCC2)c2ccc(C(=O)NS(=O)(=O)N(C)C)cc21 (stereo not shown) [drawing 40] | 6.30 to 9.00 | 6.30 to 9.00 |  |  | 
9 | COc1ccc2c(c1)C1CC1(C(=O)N1C3CCC1CN(c1ccccn1)C3)Cn1c-2c(C2CCCCC2)c2ccc(C(=O)NS(=O)(=O)N(C)C)cc21 (stereo not shown) [drawing 41] | 6.30 to 9.00 | 6.30 to 9.00 |  |  | 
10 | COc1ccc2c(c1)C1CC1(C(=O)N1C3CCC1CN(C)C3)Cn1c-2c(C2CCCCC2)c2ccc(C(=O)NS(=O)(=O)NC3CC3)cc21 (stereo not shown) [drawing 42] | 6.30 to 9.00 | 6.30 to 9.00 |  |  | 
11 | CN1CC2CCC(C1)N2C(=O)C12CC1c1cc(OCc3ccccc3)ccc1-c1c(C3CCCCC3)c3ccc(C(=O)NS(=O)(=O)N(C)C)cc3n1C2 (stereo not shown) [drawing 43] | 6.30 to 9.00 | 6.30 to 9.00 |  |  | 
12 | CN1CC2CCC(C1)N2C(=O)C12CC1c1cc(O)ccc1-c1c(C3CCCCC3)c3ccc(C(=O)NS(=O)(=O)N(C)C)cc3n1C2 (stereo not shown) [drawing 44] | 6.30 to 9.00 | 6.30 to 9.00 |  |  | 
13 | COc1ccc2c(c1)C1CC1(C(=O)N1C3CCC1CN(C)C3)Cn1c-2c(C2CCCCC2)c2ccc(C(=O)NS(=O)(=O)N(C)C)cc21 (stereo not shown) [drawing 46] |  |  |  |  | pIC50 ([1]; HCV NS5B RdRp genotype 1b enzyme, read-out: IC50): 6.30 to 9.00; pEC50 (HCV replicon cells; Hepatitis C virus, HCV replicon cells, FRET or luciferase activity, read-out: EC50): 6.30 to 9.00
14 | CNS(=O)(=O)NC(=O)c1ccc2c(C3CCCCC3)c3n(c2c1)CC1(C(=O)N2C4CCC2CN(C)C4)CC1c1cc(OC)ccc1-3 (stereo not shown) [drawing 47] |  |  | 6.30 to 9.00 | 6.30 to 9.00 | 
15 | CNS(=O)(=O)NC(=O)c1ccc2c(C3CCCCC3)c3n(c2c1)CC1(C(=O)N2C4CCC2CN(C)C4)CC1c1cc(OC)ccc1-3 (stereo not shown) [drawing 48] |  |  | 6.30 to 9.00 | 6.30 to 9.00 | 
16 | CNS(=O)(=O)NC(=O)c1ccc2c(C3CCCCC3)c3n(c2c1)CC1(C(=O)N2C4CCC2CN(C)C4)CC1c1cc(OC)ccc1-3 (stereo not shown) [drawing 50] |  |  | 6.30 to 9.00 | 6.30 to 9.00 | 
17 | COc1ccc2c(c1)C1CC1(C(=O)N1C3CCC1CN(C)C3)Cn1c-2c(C2CCCCC2)c2ccc(C(=O)NS(=O)(=O)N3CCC3)cc21 (stereo not shown) [drawing 51] |  |  | 6.30 to 9.00 | 6.30 to 9.00 | 
18 | COc1ccc2c(c1)C1CC1(C(=O)N1C3CCC1CN(C)C3)Cn1c-2c(C2CCCCC2)c2ccc(C(=O)NS(=O)(=O)N3CCOCC3)cc21 (stereo not shown) [drawing 53] |  |  | 6.30 to 9.00 | 6.30 to 9.00 | 
19 | COc1ccc2c(c1)C1CC1(C(=O)N1C3CCC1CN(C)C3)Cn1c-2c(C2CCCCC2)c2ccc(C(=O)NS(=O)(=O)N3CCN(C)CC3)cc21 (stereo not shown) [drawing 54] |  |  | 6.30 to 9.00 | 6.30 to 9.00 | 
20 | CNS(=O)(=O)NC(=O)c1ccc2c(C3CCCCC3)c3n(c2c1)CC1(C(=O)N2[C@@H]4CC[C@H]2CN(C)C4)CC1c1cc(OC)ccc1-3 (stereo partly shown) [drawing 55] | 6.30 to 9.00 | 6.30 to 9.00 |  |  | 
21 | CNS(=O)(=O)NC(=O)c1ccc2c(C3CCCCC3)c3n(c2c1)CC1(C(=O)N2[C@@H]4CC[C@H]2CN(C)C4)CC1c1cc(OC)ccc1-3 (stereo partly shown) [drawing 56] |  |  | 6.30 to 9.00 | 6.30 to 9.00 | 
22 | COc1ccc2c(c1)C1CC1(C(=O)N1C3CCC1CN(Cc1ccccc1)C3)Cn1c-2c(C2CCCCC2)c2ccc(C(=O)NS(=O)(=O)N(C)C)cc21 (stereo not shown) [drawing 58] |  |  | 6.30 to 9.00 | 6.30 to 9.00 | 
23 | COc1ccc2c(c1)C1CC1(C(=O)N1C3CCC1CNC3)Cn1c-2c(C2CCCCC2)c2ccc(C(=O)NS(=O)(=O)N(C)C)cc21 (stereo not shown) [drawing 59] |  |  | 6.30 to 9.00 | 6.30 to 9.00 | 

Reference: patent US20130171098A1, “Cyclopropyl Fused Indolobenzazepine HCV NS5B Inhibitors” (priority 2006, published 2013)
